Test results published in article PMC12227560, “Total synthesis of a sorrentanone ester library and evaluation of its antimicrobial potential” (Scientific Reports, 2025).
≈ marks a conversion by molar mass, not a printed value.

Assays:
[1] = test system: B. subtilis ATCC6633; experiment: Antimicrobial broth micro-dilution assay (MIC); format: cell-based; settings: Bacillus subtilis; B. subtilis ATCC6633; 24 h at 37 °C; highest tested concentration 250 µg/mL; read-out: Minimum inhibitory concentration (MIC)
Excerpt: (§1) 3. Bioactivity and Toxicity Assays
(§2) Antimicrobial assay: According to the standard broth micro-dilution assays, following the Standards of European Committee on Antimicrobial Susceptibility Testing (v 7.3.1: Method for the determination of broth dilution minimum inhibitory concentrations of antifungal agents for yeasts) for Candida spp., and according to the standard broth micro-dilution assays, recommended by the National Committee for Clinical Laboratory Standards (M07-A8) for bacteria MIC values of compounds were determinate. Compounds were dissolved in DMSO at a concentration of 50 mg/mL, and the highest tested concentration was 250 µg/mL. The inoculums were 1x10^5 colony forming units (CFU/mL), for Candida species, and bacteria species, 5x10^5 colony forming units (CFU/mL). The MIC value was recorded as the lowest concentration that inhibited the growth after 24 h at 37 °C. Additionally, 5 µL from each well of 96 well plates was transferred to Luria Agar (LA) plates for bacteria and Sabouraud agar (SAB) plates for Candida spp. and incubated for an additional 24 h at 37 °C, to determine MBC (Minimum bactericidal/fungicidal concentration) values. In Table 1. Are labeled compounds showing a difference in MBC and previously determined MIC values. […]

[2] = test system: C. albicans ATCC10231; experiment: Antimicrobial broth micro-dilution assay (MIC); format: cell-based; settings: Candida albicans; C. albicans ATCC10231; 24 h at 37 °C; highest tested concentration 250 µg/mL; read-out: Minimum inhibitory concentration (MIC)
Excerpt: as §1, §2

[3] = test system: E. coli NCTC9001; experiment: Antimicrobial broth micro-dilution assay (MIC); format: cell-based; settings: Escherichia coli; E. coli NCTC9001; 24 h at 37 °C; highest tested concentration 250 µg/mL; read-out: Minimum inhibitory concentration (MIC)
Excerpt: as §1, §2

[4] = test system: P. aeruginosa ATCC27853; experiment: Antimicrobial broth micro-dilution assay (MIC); format: cell-based; settings: Pseudomonas aeruginosa; P. aeruginosa ATCC27853; 24 h at 37 °C; highest tested concentration 250 µg/mL; read-out: Minimum inhibitory concentration (MIC)
Excerpt: as §1, §2

[5] = test system: S. aureus ATCC25923; experiment: Antimicrobial broth micro-dilution assay (MIC); format: cell-based; settings: Staphylococcus aureus; S. aureus ATCC25923; 24 h at 37 °C; highest tested concentration 250 µg/mL; read-out: Minimum inhibitory concentration (MIC)
Excerpt: as §1, §2

[6] = test system: S. aureus MRSA; experiment: Antimicrobial broth micro-dilution assay (MIC); format: cell-based; settings: Staphylococcus aureus; S. aureus MRSA; 24 h at 37 °C; highest tested concentration 250 µg/mL; read-out: Minimum inhibitory concentration (MIC)
Excerpt: as §1, §2

[7] = test system: C. albicans ATCC 10231 hyphae formation; experiment: Filamentation test on Candida (solid spider medium); format: cell-based, Candida albicans; settings: for relative activity in inhibition of filament formation (in words): compared with 36 and 41, sub-inhibitory concentrations
Experimental: Filamentation test on Candida: Using solid composition, the effect of sorrentano ne […]
albicans cells from an overnight culture grown in Sabouraud dextrose broth medium at 37 °C with or without compounds were centrifuged for 10 minutes at maximum speed, and the pellet was washed several times with sterile PBS (phosphate -buffered saline). After it, the pellet was resuspended in 200 µL PBS, and 2 µL of cell suspension was poured over solid composition and incubated at 37 °C for 120 h. Morphological changes of C. albicans ATCC

[8] = test system: C. albicans ATCC10231 biofilm formation; experiment: Anti-biofilm activity assessment (crystal violet); format: cell-based, Candida albicans; settings: for inhibition of biofilm formation (in words): data not shown
Experimental: Anti-biofilm activity assessment: The effect of compounds on biofilms formation was determined on C. albicans ATCC 10231 strain. Anti -biofilm assays were conducted using a previously reported methodology with small modifica tions.9 The assay was carried out in 96 - well round-bottom polystyrene microtiter plates. Cells wer e harvested from overnight grown cultures, washed twice with sterile phosphate -buffered saline (PBS; Sigma -Aldrich, Munich, Germany), and resuspended in RPMI 1640 medium (Sigma -Aldrich) containing 2% glucose (w/v) at a concentration of 1 × 10^5 CFU/mL. C. albicans suspension was incubated with 0.5 MIC, 1 MIC, and 2 MIC compounds concentration in 200.0 μL final volume per well for 48 h at 37 °C to allow biofilm formation. Biofilm growth was analyzed by crystal violet (CV) staining of adherent cells and the a bsorbance at 590.0 nm was read on a Tecan Infinite 200 Pro multiplate reader (Tecan Group Ltd., Männedorf, Switzerland). […]

[9] = test system: ergosterol in C. albicans; experiment: Ergosterol biosynthesis assay; format: cell-based, Candida albicans; settings: 0.5 MIC; Candida cells; UV profile
Experimental: Ergosterol biosynthesis assay: Ergosterol levels were measured according to the published procedure with some minor modifications. 10 Briefly, a sing le C. albicans colony from an overnight Sabouraud dextrose agar plate was used to inoculate 50 ml of Sabouraud dextrose broth containing 0.5 MIC concentrated compounds. Incubation was performed for 18 h at 37 °C on the rotary shaker at 180 rpm. Cells were harvested by centrifugation at 3000 rpm for 5 min and washed once with sterile distilled water. The net wet weight of the cell pellet was determined. Three milliliters of 25% alcoholic potassium hydroxide solution (25 g of KOH and 35 ml of sterile distill ed water, brought to 100 ml with 100% ethanol), was added to each pellet and vortex mixed for 1 min and incubated in an 85 °C water bath for 1 h. Tubes were cooled to room temperature and extraction of sterols was done with the addition of a mixture of 1 ml of sterile distilled water and 3 ml of n-heptane followed by vigorous vortex mixing for 3 min. The heptane layer was used for spectrophotometrically measuring ergosterol concentrations by scanning absorbance between 240 nm and 300 nm using Ultrospec 3300pro 573 (Amer sham Biosciences, Amersham, UK).

[10] = test system: two S. aureus strains and B. subtilis ATCC6633; experiment: Antimicrobial assay, Gram-positive bacteria; format: cell-based; settings: from MIC values
Excerpt: as §1, §2

[11] = test system: human lung fibroblast cell line (MRC-5); experiment: Cytotoxicity evaluation by MTT assay; format: cell-based
Excerpt: as §1
Antimicrobial assay: According to the standard broth micro-dilution assays, following the Standards of European Committee on Antimicrobial Susceptibility Testing (v 7.3.1: Method for the determination of broth dilution minimum inhibitory concentrations of antifungal agents for yeasts) for Candida spp., and according to the standard broth micro-dilution assays, recommended by the National Committee for Clinical Laboratory Standards (M07-A8) for bacteria MIC values of compounds were determinate. Compounds were dissolved in DMSO at a concentration of 50 mg/mL, and the highest tested concentration was 250 µg/mL. The inoculums were 1x10^5 colony forming units (CFU/mL), for Candida species, and bacteria species, 5x10^5 colony forming units (CFU/mL). The MIC value was recorded as the lowest concentration that inhibited the growth after 24 h at 37 °C. Additionally, 5 µL from each well of 96 well plates was transferred to Luria Agar (LA) plates for bacteria and Sabouraud agar (SAB) plates for Candida spp. and incubated for an additional 24 h at 37 °C, to determine MBC (Minimum bactericidal/fungicidal concentration) values. In Table 1. Are labeled compounds showing a difference in MBC and previously determined MIC values.
Cytotoxicity evaluation: Antiproliferative activity was tested by MTT assay (3-(4,5-dimethylthiazol-2-yl)-2,5-diphenyltetrazoliumbromide) on a human lung fibroblast cell line (MRC-5; ATCC collection). Pre-grown (24 h) cell monolayers (1x10^4 cells per well) in RPMI 1640 medium supplemented with 100 μg/mL streptomycin, 100 U/mL penicillin, and 10% (v/v) FBS (all from Sigma, Munich, Germany) containing the tested compounds at concentrations ranging from 5 to 20 μg/mL were incubated in a humidified atmosphere of 95% air and 5% CO2 at 37 °C for 48 h. The cell viability (extent of MTT reduction) was measured spectrophotometrically at 540 nm using the Epoch 2000 multiplate reader, and the cell survival was expressed as a percentage of the control (untreated cells). Cytotoxicity was expressed as the concentration of the compound inhibiting cell growth by 50% (IC 50). […]

[12] = test system: Bacillus subtilis; design: method as in PMID 37687129, PMID 7622440; settings: cited from earlier work
[13] = test system: Enterococcus faecalis; design: method as in PMID 37687129, PMID 7622440; settings: cited from earlier work
[14] = test system: various Streptococcus and Staphylococcus species; design: method as in PMID 37687129, PMID 7622440; settings: cited from earlier work

SMILES	MIC [1] [µg/mL]	MIC [2] [µg/mL]	MIC [3] [µg/mL]	MIC [4] [µg/mL]	MIC [5] [µg/mL]	MIC [6] [µg/mL]	relative activity in inhibition of filament formation (in words) [7]	inhibition of biofilm formation (in words) [8]	reduction of total amount of ergosterol (in words) [9]	improvement of antibacterial activity compared to sorrentanone (7) [10]	in vitro toxicity ranking (in words) ([11]; MRC-5 cells)	selectivity index (SI) ([11]; cytotoxicity versus antibiotic activity, calculation not described)	filamentation (in words) ([7]; 0.5 times MIC, 120 h, C. albicans ATCC10231)	inhibition of biofilm formation ([8]; sub-inhibitory concentration (0.5 times MIC), 48 h)	IC50 [12] [µg/mL]	IC50 [13] [µg/mL]	IC50 [14] [µg/mL]
C=CCCCOC(=O)C1=C(C)C(=O)C(O)=C(C)C1=O [compound 39]	15.6 (≈ 59 µM)	62.5 (≈ 236 µM)	> 250	> 250	62.5 (≈ 236 µM)	62.5 (≈ 236 µM)	less active	displayed inhibition of biofilm formation	most potent in reducing the total amount of ergosterol	two- to four-fold improved activity							
C/C=C/C=C/C(=O)C1=C(C)C(=O)C(O)=C(C)C1=O [compound 7, sorrentanone]	62.5 (≈ 254 µM)	125 (≈ 508 µM)	> 250	> 250	62.5 (≈ 254 µM)	31.2 (≈ 127 µM)	less active	displayed inhibition of biofilm formation	most potent in reducing the total amount of ergosterol		highest toxicity	1.12	already show filamentation after 120 h	60–77%	32.0 (≈ 130 µM)	128 (≈ 520 µM)	16.0 to 64.0
